The test system of this experiment is skin. Kind of experiment: Sensory assessment of 1 wt.-% 3-hydroxypropyl undecylenate in o/w emulsion versus placebo. In kind it is in vivo, human. As to conditions: 1 wt.-% in o/w emulsion vs placebo without active. On the procedure: Heat phase A and C separately up to 80° C. Disperse phase B in phase A. Add phase C to phase AB and emulsify using a HomoRex stirrer (3 min, […]). Add phase D and neutralize. Allow to cool by using a vane stirrer (10 min at 150 rpm, then 10 min at 100 rpm). Pre-dissolve 3-hydroxypropyl undecylenate with pentylene glycol and propylene glycol (phase E) and add to the emulsion by using a vane stirrer (10 min, 100 rpm). Sensory Assessment: Test design (for two samples; presented in random order) 100 μl of sample was applied on the forearm. Sample was distributed with index and middle finger in rotary movements for 20 seconds. Then the second sample is applied on the other forearm and again distributed. After 3 minutes the skin feel is evaluated. Question to the panellists: Which formulation (A or B) leaves the skin more soft and moisturized on a scale from 0-4? (Soft/moisture: 0=not at all; 4=very strong)

The results in this text go back to US12576018B2, “Active agents for skin and hair care with sensory modifying properties” (SYMRISE AG, priority 2019, dated 2026).

On to `C=CCCCCCCCCC(=O)OCCCO` [3-hydroxypropyl undecylenate], for which the “Soft and moisturized skin feel versus placebo (in words)” value is “more soft and moisturized skin feel”.
